IC50 data for twelve molecules are collected here from patent publication US20240383915A1, “OXAZEPINE COMPOUNDS AND USES THEREOF IN THE TREATMENT OF CANCER” (Genentech, Inc., priority 2021, published 2024).

One assay has as its target KRas(G12V) (Homo sapiens (Human), UniProt P01116, G12V). As to the kind of experiment: KRas(G12V) GDP HTRF (BODIPY-GDP exchange TR-FRET). The format is biochemical. Background: TR-FRET usually uses a lanthanide donor and a delayed reading to cut background.
Another assay addresses KRas (Homo sapiens (Human), UniProt P01116). As to the kind of experiment: KRas GDP HTRF (BODIPY-GDP exchange TR-FRET). Format: biochemical. A digest of the protocol: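 Inhibition of SOS1-mediated exchange of BODIPY-GDP on KRAS G12D, started with 3 nM recombinant human SOS1 and 300 nM BODIPY-GDP and read after 60 min. TR-FRET excitation 337 nm, ratio 520/490 nm ×10,000. IC50 from 4-parameter Hill fit of normalized data.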

The next assay relates to SW480 cells. As to the kind of experiment: SW480 proliferation assay. Format: cell-based. As to conditions: read-out: SW480 Prolif IC50 (G12V).
The test system of a further assay is PC-9 cells. As to the kind of experiment: PC9 proliferation assay. Format: cell-based, human. As to conditions: read-out: PC9 Prolif IC50 (G12V).

Read-outs that look alike come from different tables or passages of the source.

KRas, sequence (P01116-2 other isoform, or with tags, fused parts or gaps): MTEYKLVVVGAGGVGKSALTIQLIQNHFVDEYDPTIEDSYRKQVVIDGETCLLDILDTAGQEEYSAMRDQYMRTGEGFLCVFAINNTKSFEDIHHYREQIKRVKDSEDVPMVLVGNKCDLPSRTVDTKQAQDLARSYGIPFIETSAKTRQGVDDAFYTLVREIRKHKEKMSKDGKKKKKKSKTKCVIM
KRas(G12V), sequence (P01116-2 other isoform, or with tags, fused parts or gaps G12V): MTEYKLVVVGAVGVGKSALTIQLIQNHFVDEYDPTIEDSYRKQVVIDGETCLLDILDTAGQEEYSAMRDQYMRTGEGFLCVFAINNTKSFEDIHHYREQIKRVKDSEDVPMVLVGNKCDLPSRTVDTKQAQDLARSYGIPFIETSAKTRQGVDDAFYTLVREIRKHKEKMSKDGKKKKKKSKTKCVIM

As for `Cc1cc(N)nc(-c2c(Cl)c3c4c(nc(OCC5(C#N)CCOCC5)nc4c2F)N([C@H](C)c2cccnc2N)CCO3)c1C(F)(F)F` (atropisomer, axis not shown) [Example 142, 4-((((R)-9-(6-amino-4-methyl-3-(trifluoromethyl)pyridin-2-yl)-4-((R)-1-(2-aminopyridin-3-yl)ethyl)-8-chloro-10-fluoro-5,6-dihydro-4H-[1,4]oxazepino[5,6,7-de]quinazolin-2-yl)oxy)methyl)tetrahydro-2H-pyran-4-carbonitrile], the IC50 (as a rule, the concentration that gives 50% inhibition) came out at 0.31 nM against KRas(G12V); 1.1 nM at KRas; 120 nM with SW480 cells (Homo sapiens, SW480, SW480); 7700 nM with PC-9 cells (Homo sapiens, PC-9, PC9).

With `Nc1ncccc1CN1CCOc2c(Cl)c(-c3cccc4c3CCC4)cc3nc(OC[C@@]45CCCN4C[C@H](F)C5)nc1c23` [Example 63, 3-((8-chloro-9-(2,3-dihydro-1H-inden-4-yl)-2-(((2R,7aS)-2-fluorotetrahydro-1H-pyrrolizin-7a(5H)-yl)methoxy)-5,6-dihydro-4H-[1,4]oxazepino[5,6,7-de]quinazolin-4-yl)methyl)pyridin-2-amine], the IC50 against KRas(G12V) came to 8.7 nM; at KRas, 69 nM; in the assay with SW480 cells (Homo sapiens, SW480, SW480), 3300 nM; in the assay on PC-9 cells (Homo sapiens, PC-9, PC9), 4000 nM.

Take `Cc1cc(N)nc(-c2cc3ncnc4c3c(c2Cl)OCCN4Cc2cncnc2N)c1C(F)(F)F` [Example 26, 5-((9-(6-amino-4-methyl-3-(trifluoromethyl)pyridin-2-yl)-8-chloro-5,6-dihydro-4H-[1,4]oxazepino[5,6,7-de]quinazolin-4-yl)methyl)pyrimidin-4-amine]: the IC50 against KRas(G12V) was 53 nM; at KRas, 330 nM; in the assay with SW480 cells (Homo sapiens, SW480, SW480) it was 9700 nM; with PC-9 cells (Homo sapiens, PC-9, PC9), 16000 nM.

For `Nc1ncccc1CN1CCOc2c(Cl)c(-c3cc(O)cc4ccccc34)cc3nc(OC[C@@]45CCCN4C[C@H](F)C5)nc1c23` [Example 61, 4-(4-((2-aminopyridin-3-yl)methyl)-8-chloro-2-(((2R,7aS)-2-fluorotetrahydro-1H-pyrrolizin-7a(5H)-yl)methoxy)-5,6-dihydro-4H-[1,4]oxazepino[5,6,7-de]quinazolin-9-yl)naphthalen-2-ol], the IC50 against KRas(G12V) was 0.86 nM; against KRas it was 4.3 nM; in the assay on SW480 cells (Homo sapiens, SW480, SW480), 940 nM; in the assay with PC-9 cells (Homo sapiens, PC-9, PC9), 3100 nM.

Regarding `Cc1cc(N)nc(-c2c(Cl)c3c4c(nc(OC[C@@H]5CCCN5CC(F)F)nc4c2F)N([C@H](C)c2cccnc2N)CCO3)c1C(F)(F)F` (atropisomer, axis not shown) [Example 115, 6-((R)-4-((R)-1-(2-aminopyridin-3-yl)ethyl)-8-chloro-2-(((S)-1-(2,2-difluoroethyl)pyrrolidin-2-yl)methoxy)-10-fluoro-5,6-dihydro-4H-[1,4]oxazepino[5,6,7-de]quinazolin-9-yl)-4-methyl-5-(trifluoromethyl)pyridin-2-amine], the IC50 at KRas(G12V) stood at 0.47 nM; on KRas it was 0.9 nM; with SW480 cells (Homo sapiens, SW480, SW480), 16 nM; with PC-9 cells (Homo sapiens, PC-9, PC9), 15000 nM.

Consider `Cc1cc(N)nc(-c2c(Cl)c3c4c(nc(OC[C@@]56CCCN5C[C@H](F)C6)nc4c2F)N([C@H](C)c2cncnc2N)CCO3)c1C(F)(F)F` (atropisomer, axis not shown; (aS)) [Example 81, 5-((R)-1-((R)-9-(6-amino-4-methyl-3-(trifluoromethyl)pyridin-2-yl)-8-chloro-10-fluoro-2-(((2R,7aS)-2-fluorotetrahydro-1H-pyrrolizin-7a(5H)-yl)methoxy)-5,6-dihydro-4H-[1,4]oxazepino[5,6,7-de]quinazolin-4-yl)ethyl)pyrimidin-4-amine], for which the IC50 came out at 0.067 nM against KRas(G12V); 0.0659 nM on KRas; 6.1 nM in the assay with SW480 cells (Homo sapiens, SW480, SW480); 7800 nM in the assay on PC-9 cells (Homo sapiens, PC-9, PC9).

Turning to `Cc1cc(N)nc(-c2c(Cl)c3c4c(nc(OC[C@@H]5CC(F)(F)CN5C)nc4c2F)N([C@H](C)c2cccnc2N)CCO3)c1C(F)(F)F` (atropisomer, axis not shown) [Example 112, 6-((R)-4-((R)-1-(2-aminopyridin-3-yl)ethyl)-8-chloro-2-(((S)-4,4-difluoro-1-methylpyrrolidin-2-yl)methoxy)-10-fluoro-5,6-dihydro-4H-[1,4]oxazepino[5,6,7-de]quinazolin-9-yl)-4-methyl-5-(trifluoromethyl)pyridin-2-amine], the IC50 at KRas(G12V) came to 0.2 nM; on KRas it was 0.32 nM; with SW480 cells (Homo sapiens, SW480, SW480), 1.8 nM; with PC-9 cells (Homo sapiens, PC-9, PC9), 4300 nM.

As for `Cc1cc(N)nc(-c2cc3ncnc4c3c(c2Cl)OC[C@H](CC#N)N4Cc2cccnc2N)c1C(F)(F)F` [Example 19, (S)-2-(9-(6-amino-4-methyl-3-(trifluoromethyl)pyridin-2-yl)-4-((2-aminopyridin-3-yl)methyl)-8-chloro-5,6-dihydro-4H-[1,4]oxazepino[5,6,7-de]quinazolin-5-yl)acetonitrile], the IC50 was 15000 nM at KRas(G12V); 200000 nM against KRas; 5700 nM in the assay on SW480 cells (Homo sapiens, SW480, SW480); 4500 nM in the assay with PC-9 cells (Homo sapiens, PC-9, PC9).

Regarding `Cc1cc(N)nc(-c2c(Cl)c3c4c(nc(OC[C@@]56CCCN5C[C@H](F)C6)nc4c2F)N([C@H](C)c2cccnc2N)CCO3)c1C(F)(F)F` (atropisomer, axis not shown; (aS)) [Example 48, 6-(4-((R)-1-(2-aminopyridin-3-yl)ethyl)-8-chloro-10-fluoro-2-(((2R,7aS)-2-fluoro-hexahydro-1H-pyrrolizin-7a-yl)methoxy)-5,6-dihydro-4H-[1,4]oxazepino[5,6,7-de]quinazolin-9-yl)-4-methyl-5-(trifluoromethyl)pyridin-2-amine], the concentration for half-maximal inhibition (IC50) was found to be 0.04 nM on KRas(G12V), 0.091 nM on KRas, 1.4 nM with SW480 cells (SW480) and 1500 nM with PC-9 cells (PC9).

As to `Cc1cc(N)nc(-c2c(Cl)c3c4c(nc(OC[C@@]56CCCN5C[C@H](F)C6)nc4c2F)N(Cc2cccnc2N)CCO3)c1C(F)(F)F` (single isomer, unassigned) [Example 42a], the IC50 was found to be 0.3 nM against KRas(G12V), 0.25 nM on KRas, 85 nM with SW480 cells (SW480) and 1300 nM in the assay with PC-9 cells (PC9).

`Cc1cc(N)nc(-c2c(Cl)c3c4c(nc(OC[C@H]5CC[C@@H]6COCCN65)nc4c2F)N([C@H](C)c2cncnc2N)CCO3)c1C(F)(F)F` (atropisomer, axis not shown; (aR)) [Example 102b, 5-((R)-1-((R)-9-(6-amino-4-methyl-3-(trifluoromethyl)pyridin-2-yl)-8-chloro-10-fluoro-2-(((6R,8aR)-hexahydro-1H-pyrrolo[2,1-c][1,4]oxazin-6-yl)methoxy)-5,6-dihydro-4H-[1,4]oxazepino[5,6,7-de]quinazolin-4-yl)ethyl)pyrimidin-4-amine]: the IC50 came to 0.17 nM against KRas(G12V); 0.49 nM against KRas; 100 nM in the assay on SW480 cells (Homo sapiens, SW480, SW480); 8700 nM with PC-9 cells (Homo sapiens, PC-9, PC9).

Regarding `Cc1cc(N)nc(-c2c(Cl)c3c4c(nc(OC[C@@]56CCCN5C[C@H](F)C6)nc4c2F)N(Cc2cnc[nH]2)CCO3)c1C(F)(F)F` (single isomer, unassigned) [Example 47a], the IC50 in the assay on SW480 cells (Homo sapiens, SW480, SW480) amounted to 20000 nM; with PC-9 cells (Homo sapiens, PC-9, PC9) it was 7100 nM.
